For assay [1], the system named is KETR3. In words: Cytotoxicity against human Ketr3 cells at 10 uM after 96 hrs by MTT assay. Format: functional, cell-based. Background: Tetrazolium dyes change colour on reduction, which living cells bring about.
The test system of assay [2] is HCT-8. The assay can be described thus: Cytotoxicity against human HCT8 cells at 10 uM after 96 hrs by MTT assay. Format: functional, cell-based.
Assay [3] relates to A549. The assay can be described thus: Cytotoxicity against human A549 cells at 10 uM after 96 hrs by MTT assay. Format: functional, cell-based.
The test system of assay [4] is BGC-823. In words: Cytotoxicity against human BGC823 cells at 10 uM after 96 hrs by MTT assay. Format: functional, cell-based.
Assay [5] has as its system MCF7. In words: Cytotoxicity against human MCF7 cells at 10 uM after 96 hrs by MTT assay. Format: functional, cell-based.
For assay [6], the system named is Bel-7402. The assay can be described thus: Cytotoxicity against human Bel7402 cells at 10 uM after 96 hrs by MTT assay. Format: functional, cell-based.
Assay [7] has as its system Peritoneal macrophage cell. In words: Antiinflammatory activity in mouse peritoneal macrophages assessed as inhibition of nitric oxide production at 10 uM. Format: functional, cell-based.
Assay [8] relates to Liver microsomes. The assay can be described thus: Antioxidant activity in rat liver microsome assessed as inhibition of FeSO4-induced lipid peroxidation at 10 uM incubated for 15 mins prior to FeSO4-challenge measured after 15 mins by modified thiobarbituric acid method. Format: functional. (In general: Microsomes from liver hold many membrane-bound enzymes, among them those of drug oxidation.)

The test system of assay [9] is PC-12. In words: Neuroprotective activity against serum starvation-induced cell death in rat PC12 cells assessed as cell viability at 10 uM incubated for 24 hrs prior to serum starvation measured after 24 hrs by MTT assay (reference value: 55.1+/-4.2%). Format: functional. To be noted: read-out: Activity.
The subject of assay [10] is WB-F344. In words: Hepatoprotective activity against DL-galactosamine-induced cell death in rat WB-F344 cells at 10 uM incubated for 1 hr prior to DL-galactosamine-challenge measured after 24 hrs by MTT assay. Format: functional, cell-based.

Active and inactive are the calls of the source. The calls are words filed in the database; no cut-off is given here.

With `CCN1C[C@]2(COC)[C@H](O)C[C@H](OC)[C@]34C1[C@H]([C@H](OC)[C@H]23)[C@]1(O)[C@H]2[C@@H](OC(=O)c3ccccc3)[C@](O)(C[C@H]24)[C@@H](OC)[C@@H]1O`, the result in assay [1], in assay [2], in [3], in assay [4], in assay [5] and in [6] was inactive. Besides, the result in assay [10] was inactive. The inhibition result in [7] and in [8] was “inactive” each time. In addition, the viability at 10 µM in assay [9] was determined as 70.8%.
`COC[C@]12CN(C)C3[C@@H]4[C@H](OC)[C@H]1[C@@]3([C@@H](OC)C[C@H]2O)[C@@H]1C[C@@]2(O)[C@H](OC(=O)c3ccccc3)[C@@H]1[C@]4(OC(=O)c1ccccc1)[C@@H](O)[C@@H]2OC`: the outcome in [1], in assay [2], in assay [3], in [4], in [5] and in [6] was inactive. In addition, the outcome in assay [10] was inactive. In addition, the inhibition result in assay [7] and in assay [8] was “inactive” throughout. In assay [9], the viability at 10 µM was 74.7%.
In the case of `CCN1C[C@]2(COC)[C@H](O)C[C@H](OC)[C@]34C1[C@H]([C@H](OC)[C@H]23)[C@]1(OC(C)=O)[C@H]2[C@@H](OC(=O)c3ccccc3)[C@](O)(C[C@]24O)[C@@H](OC)[C@@H]1O`, the result in assay [1], in [2], in assay [3], in assay [4], in assay [5] and in assay [6] was inactive. Also, the result in assay [10] was inactive. In addition, the inhibition result in assay [7] and in assay [8] was “inactive” each time.
Regarding `CCN1C[C@]2(COC)CC[C@H](OC)[C@]34C1[C@H]([C@H](OC)[C@H]23)[C@]1(OC(C)=O)[C@H]2[C@@H](OC(=O)c3ccccc3)[C@H](C[C@H]24)[C@@H](OC)[C@@H]1O`, the outcome in assay [1], in assay [2], in [3], in assay [4], in assay [5] and in assay [6] was inactive. The result in [10] was inactive. Besides, the inhibition result in assay [7] and in assay [8] was “inactive” throughout.
In the case of `COC[C@]12CN(C)C3[C@@H]4[C@H](OC)[C@H]1[C@@]3([C@@H](OC)C[C@H]2O)[C@]1(O)C[C@@]2(O)[C@H](OC(=O)c3ccccc3)[C@@H]1[C@]4(O)[C@@H](O)[C@H]2OC`, the result in assay [1], in assay [2], in assay [3], in assay [4], in assay [5] and in [6] was inactive. Besides, in [10], the result was inactive. Also, the inhibition entry in assay [7] and in assay [8] was “inactive” in each case.
On to `COC[C@]12CN(C)C3[C@@H]4[C@H](OC)[C@H]1[C@@]3([C@@H](OC)C[C@H]2OC(C)=O)[C@]1(O)C[C@@]2(O)[C@H](OC(=O)c3ccccc3)[C@@H]1[C@]4(OC)[C@@H](O)[C@@H]2OC`, for which the result in assay [1], in assay [2], in assay [3], in [4], in assay [5] and in [6] was inactive. Besides, the result in [10] was inactive. The inhibition result in assay [7] and in assay [8] was “inactive” each time.
As to `CCN1C[C@]2(COC)CC[C@H](O)[C@]34C1[C@H]([C@H](OC)[C@H]23)[C@]1(O)[C@H]2[C@@H](OC(=O)c3ccccc3)[C@H](C[C@H]24)[C@@H](OC)[C@@H]1O`, the result in assay [1], in assay [2], in assay [3], in [4], in [5] and in assay [6] was inactive. Also, in assay [10], the result was inactive. In addition, the inhibition entry in assay [7] and in assay [8] was “inactive” each time.
For the compound `C=C1C[C@]23C[C@H]4[C@@H]5[C@@]6(C)C[C@H](OC(=O)c7ccccc7)[C@@H](OC(C)=O)[C@]57C(C2[C@@H](O)[C@H]1[C@@H](OC(C)=O)[C@H]37)N4[C@H]6O`, the result in assay [1], in [2], in assay [3], in assay [4], in assay [5] and in assay [6] was inactive. Also, the result in assay [10] was inactive. Besides, the inhibition result in assay [7] and in [8] was “inactive” in each case.
On to `CCO[C@]12[C@H]3[C@@H](OC(=O)c4ccccc4)[C@H](C[C@H]3[C@@]34C5[C@@H]1[C@H](O)[C@@H]3[C@@](COC)(CC[C@@H]4OC)CN5CC)[C@@H](OC)[C@@H]2O`, for which the outcome in assay [1], in assay [2], in assay [3], in [4], in assay [5] and in [6] was inactive. The result in [10] was inactive. The inhibition entry in [7] and in assay [8] was “inactive” in each case.
Turning to `COC[C@]12CN(C)C3[C@@H]4[C@H](OC)[C@H]1[C@@]3([C@@H](OC)C[C@H]2O)[C@]1(O)C[C@@]2(O)[C@H](OC(=O)c3ccccc3)[C@@H]1[C@]4(OC)[C@@H](O)[C@@H]2OC` (stereo in doubt; 8), the outcome in assay [1], in assay [2], in assay [3], in assay [4], in [5] and in [6] was inactive. For the same compound, the result in assay [10] was inactive. Also, the inhibition entry in assay [7] and in assay [8] was “inactive” each time.
As for `C=C1C[C@@]23C[C@H]4[C@@H]5[C@@]6(C)C[C@H](OC(=O)CC)C[C@@]57[C@@H]2[C@H](O)[C@@H]1[C@H](OC(=O)[C@@H](C)CC)C3[C@H]7[N+]4(C)[C@H]6O`, the result in [1], in assay [2], in assay [3], in [4], in [5] and in [6] was inactive. Moreover, the outcome in assay [10] was inactive. Further, the inhibition result in [7] and in assay [8] was “inactive” throughout.
Regarding `COC[C@]12CN(C)C3[C@@H]4[C@H](OC)[C@H]1[C@@]3([C@@H](OC)C[C@H]2O)[C@@H]1C[C@@]2(O)[C@H](OC(=O)c3ccccc3)[C@@H]1[C@]4(O)[C@@H](OC(C)=O)[C@@H]2OC`, the result in assay [1], in assay [2], in assay [3], in [4], in assay [5] and in assay [6] was inactive. In addition, the outcome in [10] was inactive. Besides, the inhibition result in assay [7] and in assay [8] was “inactive” in each case.
For `COC[C@@]12CC[C@H](OC)[C@]34C([C@H]([C@H](OC)[C@H]13)[C@]1(OC(C)=O)[C@H]3[C@@H](OC(=O)c5ccccc5)[C@](O)(C[C@]34O)[C@@H](OC)[C@@H]1O)N(C)C2`, the outcome in assay [1], in [2], in [3], in [4], in assay [5] and in assay [6] was inactive. In assay [10], the result was inactive. For the same compound, the inhibition result in assay [7] and in [8] was “inactive” in each case.
`COC[C@]12CN(C)C3[C@@H]4[C@H](OC)[C@H]1[C@@]3([C@@H](OC)C[C@H]2O)[C@@H]1C[C@@]2(O)[C@H](OC(=O)c3ccccc3)[C@@H]1[C@]4(O)[C@@H](O)[C@@H]2OC`: the result in assay [1], in [2], in assay [3], in [4], in assay [5] and in assay [6] was inactive. Besides, the outcome in [10] was inactive. Moreover, the inhibition entry in [7] and in assay [8] was “inactive” in each case.
Regarding `CCN1C[C@]2(COC)CC[C@H](OC)[C@]34C1[C@H]([C@H](OC)[C@H]23)[C@]1(OC(C)=O)[C@H]2[C@@H](OC(=O)c3ccccc3)[C@](O)(C[C@H]24)[C@@H](OC)[C@@H]1O`, the outcome in assay [1], in assay [2], in assay [3], in assay [4], in [5] and in assay [6] was inactive. Moreover, the result in assay [10] was inactive. Also, the inhibition result in assay [7] and in [8] was “inactive” in each case.
